Legend:
H37Rv cells [1] = assay: Sp6 SML-phage drug susceptibility test: SML generation (RT-PCR) in drug-treated Mtb; assay type: cell-based; settings: 0.2 μg/ml INH, 2 μg/ml STR or 7.5 μg/ml EMB, Sp6 SML-phage MOI of 1 for 4 hr
H37Rv cells [2] = assay: Effect of mucolytic agents on phage infection and SML generation; assay type: cell-based, Mtb; settings: equal volume of 0.5% NALC/2.9% NaCitrate or 200 mM TCEP/2.9% NaCitrate, one hour at 37° C., then SML-phage 4 hr; HiSalt conditions not given
[3] = 16 hr treatment at 37° C. with 2 μg/ml RIF
[4] = 40 hr treatment at 37° C. with 2 μg/ml RIF

SMILES	SML generation after drug treatment (H37Rv cells [1]; [3])	SML generation after drug treatment (H37Rv cells [1]; [4])	Effect on phage infection and SML generation (H37Rv cells [2])
CC[C@@H](CO)NCCN[C@@H](CC)CO [EMB, Ethambutol]	some detectable SML synthesis	completely abolished	
NNC(=O)c1ccncc1 [INH, isoniazid]	some detectable SML synthesis	completely abolished	
CC(=O)N[C@@H](CS)C(=O)O [NALC, N-acetyl-L-cysteine]			no effect
[H]/N=C(/N)N[C@H]1[C@H](O)[C@@H](O)[C@H](O[C@@H]2O[C@@H](C)[C@](O)(C=O)[C@H]2O[C@@H]2O[C@@H](CO)[C@H](O)[C@@H](O)[C@@H]2NC)[C@@H](N/C(N)=N\[H])[C@@H]1O [STR, Streptomycin]	no detectable SML	no detectable SML	
O=C(O)CCP(CCC(=O)O)CCC(=O)O [TCEP, Tris-Carboxyethylphosphine]			completely abolishes SML generation

From patent US8501400B2, “Methods and compositions for determining the pathogenic status of infectious agents” (priority 2007, dated 2013)
